Test results from patent publication US11572590B2, “Methods for evaluating tumor cell spheroids using 3D microfluidic cell culture device” (Dana-Farber Cancer Institute, Inc., priority 2017, dated 2023).
Like-named read-outs stand apart in the source and are kept apart here.

Key:
Test in all cases: SelectScreen Kinase Profiling, single point inhibition and IC50 for off-target kinases
Assay type in all cases: biochemical
off-target kinases [1] = biological target: off-target kinases (Homo sapiens, UniProt P00533, DEL746-750); details: EGFR (ErbB1) d746-750; mutant y; LanthaScreen Binding
Protocol: (§1) Biochemical single point inhibition and IC50 concentrations for TBK1, IKKε (IKBKE), and off-target kinases were determined at ThermoFisher Scientific using SelectScreen Kinase Profiling Services (Madison, Wis., USA) (Tables S4A and S4B-1-7). To determine cellular potency, the human colorectal cancer carcinoma cell line HCT116 (ATCC, Manassas, Va.) was maintained in T175 flasks in complete RPMI medium; RPMI 1640 supplemented with 10% FBS, 1× Penicillin-Streptomycin solution and 1×MEM (non-essential amino acids). HCT116 cells were grown to 90-95% confluency in T175 flasks containing complete RPMI medium and transfected in bulk using Lipofectamine 2000 (Invitrogen, Carlsbad, Calif.) with 70 μg of ISG54-luciferase reporter plasmid (Elim Biopharmaceuticals Inc., Hayward, Calif.). The reporter plasmid contains a luciferase gene expression cassette under the transcriptional regulation of the promoter of the human interferon stimulated gene 54 (ISG54). Transfection of the cells was allowed to take place for 6 hours, after which the cells were harvested by treatment with 0.25% trypsin EDTA (Corning Inc., Corning, N.Y.). Trypsinized cells were added to 384-well poly-d-lysine treated black clear bottom tissue culture assay plates (Greiner Bio-One GmbH, Kremsmünster, Austria) at a density of 20,000 cells/well in 80 μL of complete RPMI medium and incubated overnight. After 16-18 hours post-transfection, the assay plates were washed with PBS (Corning Inc., Corning, N.Y.), followed by addition of 80 μL/well of serum-free RPMI 1640 medium containing 1× Penicillin-Streptomycin solution, 1×MEM and 350 nL of DMSO or titrations of Compound 1. Compound 1 titrations were generated by 1.5-fold dilution steps in two overlapping serial dilution series to generate a 40-point compound dose range. After incubation at 37° C. for 1 hour, the cells were stimulated with Poly(I:C) (InvivoGen, San Diego, Calif.) at a final concentration of 15 μg/mL in Optimem media (Life Technologies, Rockville, Md.). The assay plates were incubated for 5 hours at 37° C., followed by addition of One-Glo luciferase firefly reagent (Promega, Madison, Wis.) at 1:1 volume/well and luminescence was measured in an EnVision Multilabel Plate Reader (PerkinElmer, Santa Clara, Calif.). The EC50 values were calculated from the fit of the dose-response curves to a four-parameter equation. All EC50 values represent geometric mean values of a minimum of four determinations.

off-target kinases [2] = biological target: off-target kinases (Homo sapiens, UniProt P00533, L858R/T790M); details: EGFR (ErbB1) T790M L858R, mutant y, ZLYTE, ATP Km app
Protocol: as §1

off-target kinases [3] = biological target: off-target kinases (Homo sapiens, UniProt P41279); details: MAP3K8 (COT), ZLYTE, ATP 100
Protocol: as §1

off-target kinases [4] = biological target: off-target kinases (Homo sapiens, UniProt Q13464); details: ROCK1, ZLYTE, ATP Km app
Protocol: as §1

off-target kinases [5] = biological target: T1, off-target kinases (Homo sapiens, UniProt Q96PY6); details: NEK1, ATP Km app, ZLYTE
T1 sequence (Q96PY6 1-1258): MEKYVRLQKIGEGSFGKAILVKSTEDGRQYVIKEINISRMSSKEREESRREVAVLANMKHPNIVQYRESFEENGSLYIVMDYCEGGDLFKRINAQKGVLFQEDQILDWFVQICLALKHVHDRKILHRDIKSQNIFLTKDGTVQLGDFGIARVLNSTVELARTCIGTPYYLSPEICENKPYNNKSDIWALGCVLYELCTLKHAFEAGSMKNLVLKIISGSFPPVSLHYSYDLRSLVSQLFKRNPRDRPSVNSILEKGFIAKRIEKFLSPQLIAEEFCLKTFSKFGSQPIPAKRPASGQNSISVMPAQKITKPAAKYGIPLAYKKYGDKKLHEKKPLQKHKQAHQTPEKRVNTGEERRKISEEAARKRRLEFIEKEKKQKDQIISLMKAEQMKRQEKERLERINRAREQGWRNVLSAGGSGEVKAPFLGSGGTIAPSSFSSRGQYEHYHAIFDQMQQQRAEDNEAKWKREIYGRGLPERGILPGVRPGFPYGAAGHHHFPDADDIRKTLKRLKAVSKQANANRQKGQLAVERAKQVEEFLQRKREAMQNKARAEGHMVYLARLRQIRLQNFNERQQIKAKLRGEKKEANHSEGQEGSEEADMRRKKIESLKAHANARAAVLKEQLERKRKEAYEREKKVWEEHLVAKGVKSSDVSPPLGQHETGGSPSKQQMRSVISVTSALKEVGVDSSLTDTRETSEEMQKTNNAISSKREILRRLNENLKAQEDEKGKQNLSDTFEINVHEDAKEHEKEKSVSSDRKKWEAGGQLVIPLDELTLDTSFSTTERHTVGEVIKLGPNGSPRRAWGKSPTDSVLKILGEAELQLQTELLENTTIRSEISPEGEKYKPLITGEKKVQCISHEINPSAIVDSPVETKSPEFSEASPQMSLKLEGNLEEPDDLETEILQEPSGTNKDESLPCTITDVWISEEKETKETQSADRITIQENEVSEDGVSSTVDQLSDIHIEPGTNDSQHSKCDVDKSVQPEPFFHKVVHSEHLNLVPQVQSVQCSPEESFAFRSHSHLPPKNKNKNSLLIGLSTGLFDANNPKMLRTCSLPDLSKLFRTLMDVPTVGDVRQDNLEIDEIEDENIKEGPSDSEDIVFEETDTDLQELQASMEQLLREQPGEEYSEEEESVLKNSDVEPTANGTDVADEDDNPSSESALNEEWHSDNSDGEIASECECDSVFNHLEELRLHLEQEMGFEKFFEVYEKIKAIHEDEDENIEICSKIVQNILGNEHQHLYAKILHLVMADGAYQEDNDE
Protocol: as §1

Chain of off-target kinases (Homo sapiens, UniProt P41279) (P41279 whole entry): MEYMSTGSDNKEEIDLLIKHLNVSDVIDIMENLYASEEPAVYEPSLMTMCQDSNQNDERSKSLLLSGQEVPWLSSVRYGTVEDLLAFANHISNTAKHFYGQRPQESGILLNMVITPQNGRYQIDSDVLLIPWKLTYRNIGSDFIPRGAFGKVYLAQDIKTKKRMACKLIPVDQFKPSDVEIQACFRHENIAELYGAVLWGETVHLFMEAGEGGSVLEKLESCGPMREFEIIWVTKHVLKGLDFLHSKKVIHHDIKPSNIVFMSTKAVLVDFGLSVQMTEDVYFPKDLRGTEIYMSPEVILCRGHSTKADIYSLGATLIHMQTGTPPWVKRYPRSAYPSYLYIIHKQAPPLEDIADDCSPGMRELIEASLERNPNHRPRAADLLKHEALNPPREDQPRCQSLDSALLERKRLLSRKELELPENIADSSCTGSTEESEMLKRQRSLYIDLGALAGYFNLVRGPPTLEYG
Chain of off-target kinases (Homo sapiens, UniProt Q13464) (Q13464 whole entry): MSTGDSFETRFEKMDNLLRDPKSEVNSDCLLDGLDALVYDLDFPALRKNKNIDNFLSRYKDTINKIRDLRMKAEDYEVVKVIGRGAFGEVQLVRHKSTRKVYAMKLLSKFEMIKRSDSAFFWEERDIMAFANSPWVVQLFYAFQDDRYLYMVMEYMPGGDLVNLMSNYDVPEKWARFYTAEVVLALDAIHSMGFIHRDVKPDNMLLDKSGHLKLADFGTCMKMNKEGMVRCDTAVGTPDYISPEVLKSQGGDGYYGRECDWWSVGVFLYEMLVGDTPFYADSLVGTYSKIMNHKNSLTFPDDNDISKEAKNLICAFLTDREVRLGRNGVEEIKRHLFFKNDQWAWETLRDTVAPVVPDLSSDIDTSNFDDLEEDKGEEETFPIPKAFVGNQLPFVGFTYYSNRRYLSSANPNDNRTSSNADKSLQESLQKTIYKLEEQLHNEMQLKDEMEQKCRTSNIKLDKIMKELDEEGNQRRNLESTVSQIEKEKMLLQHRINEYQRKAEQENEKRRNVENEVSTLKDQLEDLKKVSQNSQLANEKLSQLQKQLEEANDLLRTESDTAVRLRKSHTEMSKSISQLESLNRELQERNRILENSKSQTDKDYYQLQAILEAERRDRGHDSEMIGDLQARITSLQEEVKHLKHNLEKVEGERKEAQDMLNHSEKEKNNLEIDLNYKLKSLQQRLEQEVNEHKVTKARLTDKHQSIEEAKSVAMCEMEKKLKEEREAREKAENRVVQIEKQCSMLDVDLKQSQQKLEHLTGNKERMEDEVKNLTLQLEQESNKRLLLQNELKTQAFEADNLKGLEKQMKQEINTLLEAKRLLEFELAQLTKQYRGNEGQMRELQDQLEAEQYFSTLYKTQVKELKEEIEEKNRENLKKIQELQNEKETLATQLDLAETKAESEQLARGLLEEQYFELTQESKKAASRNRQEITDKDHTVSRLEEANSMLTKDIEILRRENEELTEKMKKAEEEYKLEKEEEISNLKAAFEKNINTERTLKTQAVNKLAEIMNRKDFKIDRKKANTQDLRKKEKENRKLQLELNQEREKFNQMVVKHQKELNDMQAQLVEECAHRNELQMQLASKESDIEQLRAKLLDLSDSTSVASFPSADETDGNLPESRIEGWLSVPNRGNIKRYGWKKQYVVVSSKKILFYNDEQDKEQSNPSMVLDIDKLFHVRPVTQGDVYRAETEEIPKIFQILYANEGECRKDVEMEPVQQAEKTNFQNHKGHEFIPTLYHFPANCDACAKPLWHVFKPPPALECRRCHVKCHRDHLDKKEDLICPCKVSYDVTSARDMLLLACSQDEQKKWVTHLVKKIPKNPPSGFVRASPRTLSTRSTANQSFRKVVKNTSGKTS
Chain of off-target kinases (Homo sapiens, UniProt P00533, L858R/T790M) (P00533 25-1210 T790M/L858R): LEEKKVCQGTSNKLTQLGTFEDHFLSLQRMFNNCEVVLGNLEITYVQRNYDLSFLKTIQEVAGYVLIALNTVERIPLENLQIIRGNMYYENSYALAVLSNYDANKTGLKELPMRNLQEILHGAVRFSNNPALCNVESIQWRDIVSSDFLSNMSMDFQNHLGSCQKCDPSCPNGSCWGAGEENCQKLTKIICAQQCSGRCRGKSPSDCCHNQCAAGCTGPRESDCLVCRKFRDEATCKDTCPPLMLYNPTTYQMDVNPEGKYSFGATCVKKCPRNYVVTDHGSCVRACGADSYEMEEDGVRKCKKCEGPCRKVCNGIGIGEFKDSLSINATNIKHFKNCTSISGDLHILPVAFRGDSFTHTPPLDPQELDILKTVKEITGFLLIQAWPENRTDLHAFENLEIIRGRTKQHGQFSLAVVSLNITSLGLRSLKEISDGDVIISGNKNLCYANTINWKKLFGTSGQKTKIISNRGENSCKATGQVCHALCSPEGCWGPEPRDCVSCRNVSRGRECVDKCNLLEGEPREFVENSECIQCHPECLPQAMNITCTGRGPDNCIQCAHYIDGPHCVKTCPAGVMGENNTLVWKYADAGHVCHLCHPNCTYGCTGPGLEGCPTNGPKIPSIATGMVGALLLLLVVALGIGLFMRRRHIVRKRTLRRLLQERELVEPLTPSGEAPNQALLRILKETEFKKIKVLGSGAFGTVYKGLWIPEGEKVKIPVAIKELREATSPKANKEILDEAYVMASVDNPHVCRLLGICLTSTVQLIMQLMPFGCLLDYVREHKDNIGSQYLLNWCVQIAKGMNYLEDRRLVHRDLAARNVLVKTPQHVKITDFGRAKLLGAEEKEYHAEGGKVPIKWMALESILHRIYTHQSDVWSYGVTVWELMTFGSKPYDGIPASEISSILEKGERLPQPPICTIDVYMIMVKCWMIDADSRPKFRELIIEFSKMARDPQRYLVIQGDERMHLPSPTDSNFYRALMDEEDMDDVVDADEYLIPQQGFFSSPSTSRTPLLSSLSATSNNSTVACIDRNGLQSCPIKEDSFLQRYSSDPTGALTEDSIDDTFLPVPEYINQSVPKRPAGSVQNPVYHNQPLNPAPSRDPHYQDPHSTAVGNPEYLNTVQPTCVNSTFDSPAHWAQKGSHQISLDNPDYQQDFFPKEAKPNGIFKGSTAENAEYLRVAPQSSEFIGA
Chain of off-target kinases (Homo sapiens, UniProt P00533, DEL746-750) (P00533 with tags, fused parts or gaps DEL746-750): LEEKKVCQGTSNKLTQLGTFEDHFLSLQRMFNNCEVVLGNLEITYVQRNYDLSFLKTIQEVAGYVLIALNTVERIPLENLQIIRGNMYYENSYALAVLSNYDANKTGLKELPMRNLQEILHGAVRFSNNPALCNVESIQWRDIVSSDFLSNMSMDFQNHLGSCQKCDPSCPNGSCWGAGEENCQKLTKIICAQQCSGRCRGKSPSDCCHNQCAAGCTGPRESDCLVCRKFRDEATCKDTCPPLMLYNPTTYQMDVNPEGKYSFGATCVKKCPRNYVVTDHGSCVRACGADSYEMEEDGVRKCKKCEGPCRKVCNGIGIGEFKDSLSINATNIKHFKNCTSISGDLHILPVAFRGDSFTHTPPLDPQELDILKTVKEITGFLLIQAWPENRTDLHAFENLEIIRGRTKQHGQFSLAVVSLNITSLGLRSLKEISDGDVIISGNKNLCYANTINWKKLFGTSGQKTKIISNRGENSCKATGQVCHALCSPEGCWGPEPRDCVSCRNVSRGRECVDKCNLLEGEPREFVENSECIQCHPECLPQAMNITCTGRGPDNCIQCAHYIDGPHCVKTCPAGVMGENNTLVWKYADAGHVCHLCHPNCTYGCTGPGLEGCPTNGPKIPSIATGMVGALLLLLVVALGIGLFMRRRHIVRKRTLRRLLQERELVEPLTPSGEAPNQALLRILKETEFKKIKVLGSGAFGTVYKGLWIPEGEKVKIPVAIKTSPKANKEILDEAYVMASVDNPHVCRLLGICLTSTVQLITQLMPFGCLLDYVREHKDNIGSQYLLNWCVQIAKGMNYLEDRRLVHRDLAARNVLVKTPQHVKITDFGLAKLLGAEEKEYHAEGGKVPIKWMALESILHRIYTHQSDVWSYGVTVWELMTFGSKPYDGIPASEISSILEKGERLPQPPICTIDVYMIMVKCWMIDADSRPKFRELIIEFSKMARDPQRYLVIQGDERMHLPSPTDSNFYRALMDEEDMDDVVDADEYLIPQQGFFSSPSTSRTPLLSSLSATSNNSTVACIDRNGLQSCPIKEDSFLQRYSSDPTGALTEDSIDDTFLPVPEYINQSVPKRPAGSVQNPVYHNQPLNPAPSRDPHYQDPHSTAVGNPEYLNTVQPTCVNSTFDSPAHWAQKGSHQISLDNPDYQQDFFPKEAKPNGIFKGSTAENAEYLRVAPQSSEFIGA

How did the inhibition (off-target kinases [1]) turn out when `N#Cc1cc(-c2ncnc(Nc3ccc(N4CCN(C5COC5)CC4)cc3)n2)ccc1OC1CCOCC1` [Compound 1, 5-(4-((4-(4-(oxetan-3-yl)piperazin-1-yl)phenyl)amino)-1,3,5-triazin-2-yl)-2-((tetrahydro-2H-pyran-4-yl)oxy)benzonitrile] was run?
The inhibition was 14%.

And the inhibition (off-target kinases [2]; read-out: % Inhibition 1)?
Its inhibition is 34%.

What about the inhibition (off-target kinases [2]; read-out: % Inhibition 2) of the same compound?
Its inhibition is 29%.

What about the inhibition (off-target kinases [2]; read-out: % Inhibition Avg) of the same compound?
Its inhibition is 31%.

And the inhibition (off-target kinases [3]; read-out: % Inhibition 1)?
The inhibition was 19%.

What about the inhibition (off-target kinases [3]; read-out: % Inhibition 2) of the same compound?
Its inhibition is 11%.

And the inhibition (off-target kinases [3]; read-out: % Inhibition Avg)?
Its inhibition is 15%.

What about the inhibition (off-target kinases [4]; read-out: % Inhibition 1) of the same compound?
Its inhibition is 6%.

And the inhibition (off-target kinases [4]; read-out: % Inhibition 2)?
Its inhibition is 14%.

What about the inhibition (off-target kinases [4]; read-out: % Inhibition Avg) of the same compound?
Its inhibition is 10%.

And the inhibition (off-target kinases [5]; read-out: % Inhibition 1)?
Its inhibition is 68%.

And the inhibition (off-target kinases [5]; read-out: % Inhibition 2)?
The inhibition was 70%.

And the inhibition (off-target kinases [5]; read-out: % Inhibition Avg)?
Its inhibition is 69%.
